Measurements taken from PubChem BioAssay (NCI).
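Protocol summary: plate cells (96-well), add compound at 5 concentrations, incubate 48 h, interpolate endpoints linearly. At the GI50, growth is halved. TGI is the concentration that stops growth completely.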

How the values were obtained:
Assay in all cases: DTP human tumour cell line panel, 48 h
SK-MEL-5 melanoma = system: SK-MEL-5 melanoma
NCI-H522 lung = system: NCI-H522 lung
A549 NSCLC = system: A549 NSCLC
NCI/ADR-RES ovarian = system: NCI/ADR-RES ovarian
SNB-75 CNS = system: SNB-75 CNS
OVCAR-5 ovarian = system: OVCAR-5 ovarian
SF-539 CNS = system: SF-539 CNS
PC-3 prostate = system: PC-3 prostate
OVCAR-3 ovarian = system: OVCAR-3 ovarian
SF-268 CNS = system: SF-268 CNS
IGROV1 ovarian = system: IGROV1 ovarian
SW-620 colon = system: SW-620 colon
BT-549 breast = system: BT-549 breast
MCF7 breast = system: MCF7 breast
RPMI-8226 leukemia = system: RPMI-8226 leukemia
NCI-H23 lung = system: NCI-H23 lung
TK-10 renal = system: TK-10 renal
LOX IMVI melanoma = system: LOX IMVI melanoma
CAKI-1 renal = system: CAKI-1 renal
HL-60(TB) leukemia = system: HL-60(TB) leukemia
HS 578T breast = system: HS 578T breast
KM12 colon = system: KM12 colon
SNB-19 CNS = system: SNB-19 CNS
A498 renal = system: A498 renal
MDA-MB-435 = system: MDA-MB-435
RXF 393 renal = system: RXF 393 renal
UO-31 renal = system: UO-31 renal
HT29 colon = system: HT29 colon

In the case of `COc1ccc(C(=O)COc2cccc(/C=C3\CSc4ccc(C)cc4C3=O)c2)cc1`, the GI50 (SK-MEL-5 melanoma) is reported as 10.9 µM, the TGI (SK-MEL-5 melanoma) is reported as > 100 µM and the GI50 (NCI-H522 lung) is reported as 3.62 µM. The TGI (NCI-H522 lung) was 37.2 µM, the GI50 (A549 NSCLC) was > 100 µM and the TGI (A549 NSCLC) was > 100 µM. The GI50 (NCI/ADR-RES ovarian) was 3.89 µM, the TGI (NCI/ADR-RES ovarian) was 18.7 µM and the GI50 (SNB-75 CNS) was 27.9 µM. The TGI (SNB-75 CNS) was > 100 µM, the GI50 (OVCAR-5 ovarian) was 51.9 µM and the TGI (OVCAR-5 ovarian) was > 100 µM. The GI50 (SF-539 CNS) was > 100 µM, the TGI (SF-539 CNS) was > 100 µM and the GI50 (PC-3 prostate) was 5.86 µM. For the same compound, the TGI (PC-3 prostate) was > 100 µM, the GI50 (OVCAR-3 ovarian) was 15.4 µM and the TGI (OVCAR-3 ovarian) was 57.6 µM. It also gave a GI50 (SF-268 CNS) of 19.3 µM, a TGI (SF-268 CNS) of 72.9 µM and a GI50 (IGROV1 ovarian) of 12.2 µM. The TGI (IGROV1 ovarian) was 43.8 µM, the GI50 (SW-620 colon) was 2.03 µM and the TGI (SW-620 colon) was 4.74 µM. For the same compound, the GI50 (BT-549 breast) was 27.6 µM, the TGI (BT-549 breast) was > 100 µM and the GI50 (MCF7 breast) was 2.64 µM. It also gave a TGI (MCF7 breast) of 31.3 µM, a GI50 (RPMI-8226 leukemia) of 1.89 µM and a TGI (RPMI-8226 leukemia) of 6.47 µM. The GI50 (NCI-H23 lung) was 6.99 µM, the TGI (NCI-H23 lung) was > 100 µM and the GI50 (TK-10 renal) was 19.8 µM. For the same compound, the TGI (TK-10 renal) was > 100 µM, the GI50 (LOX IMVI melanoma) was 2.53 µM and the TGI (LOX IMVI melanoma) was 8.06 µM. For the same compound, the GI50 (CAKI-1 renal) was 28.7 µM, the TGI (CAKI-1 renal) was > 100 µM and the GI50 (HL-60(TB) leukemia) was 5.44 µM. For the same compound, the TGI (HL-60(TB) leukemia) was 43.3 µM, the GI50 (HS 578T breast) was 40.4 µM and the TGI (HS 578T breast) was > 100 µM. For the same compound, the GI50 (KM12 colon) was 3.69 µM, the TGI (KM12 colon) was > 100 µM and the GI50 (SNB-19 CNS) was > 100 µM. For the same compound, the TGI (SNB-19 CNS) was > 100 µM, the GI50 (A498 renal) was > 100 µM and the TGI (A498 renal) was > 100 µM. It also gave a GI50 (MDA-MB-435) of 3.59 µM, a TGI (MDA-MB-435) of 83.9 µM and a GI50 (RXF 393 renal) of 19.9 µM. The TGI (RXF 393 renal) was 49 µM, the GI50 (UO-31 renal) was 19.9 µM and the TGI (UO-31 renal) was > 100 µM. For the same compound, the GI50 (HT29 colon) was 6.02 µM and the TGI (HT29 colon) was > 100 µM.
